This is an account of results in paper PMC10505147, “Ustilago maydis PR-1-like protein has evolved two distinct domains for dual virulence activities” (Nature Communications, 2023).

Experiment [1] has as its target T1, CatB3 (Cathepsin B-like 3) (Zea mays, UniProt A0A804QEY3).
T1 construct: gene LOC100283781; untagged, expressed with signal peptide in Nicotiana benthamiana by agroinfiltration, purified from apoplastic fluid by size exclusion
The experiment is classed as biochemical. As to conditions: 0.5 mM inhibitor, substrate UmPR-1La-HA culture supernatant, 50 mM sodium acetate, 10 mM DTT, pH 5.5, 28 °C.

Another experiment addresses T2, UmPR-1La (PR-1La) (Mycosarcoma maydis, UniProt A0A0D1E5M0).
T2 construct: gene UMAG_01204; His-tagged full-length protein without signal peptide (PR-1La 24-279), expressed in E. coli Shuffle T7, Ni-NTA and size exclusion
As to the kind of experiment: intrinsic tryptophan fluorescence. The experiment is classed as binding. The following applies: 0.25 µM protein, 50 mM sodium acetate pH 5.5, room temperature, 15 min.

T2 sequence (A0A0D1E5M0 entry or part of it): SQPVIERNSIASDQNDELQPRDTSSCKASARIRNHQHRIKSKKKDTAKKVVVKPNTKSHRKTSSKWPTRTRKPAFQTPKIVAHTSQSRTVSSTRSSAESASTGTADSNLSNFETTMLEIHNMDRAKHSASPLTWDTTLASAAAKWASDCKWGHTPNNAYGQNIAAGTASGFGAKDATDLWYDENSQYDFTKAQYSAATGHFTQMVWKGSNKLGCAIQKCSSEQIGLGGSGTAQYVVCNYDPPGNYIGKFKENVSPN
T1 sequence (A0A804QEY3 entry or part of it): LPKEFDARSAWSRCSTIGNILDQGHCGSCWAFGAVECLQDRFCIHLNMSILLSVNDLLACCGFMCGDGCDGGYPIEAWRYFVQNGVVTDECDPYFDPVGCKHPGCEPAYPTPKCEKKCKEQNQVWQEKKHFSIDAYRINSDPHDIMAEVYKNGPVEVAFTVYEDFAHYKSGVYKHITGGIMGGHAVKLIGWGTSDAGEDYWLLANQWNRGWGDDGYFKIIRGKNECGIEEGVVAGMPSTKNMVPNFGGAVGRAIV

For `CC(C)C[C@H](NC(=O)[C@H]1O[C@@H]1C(=O)O)C(=O)NCCCCN=C(N)N` [E64], in experiment [1], the “inhibition of UmPR-1La cleavage (immunoblot)” value was “The activity of CatB3 was blocked by E64 (Fig. 5b)”.

On to `COc1cc(/C=C/CO)ccc1O` [coniferyl alcohol], for which the intrinsic tryptophan fluorescence entry on UmPR-1La (PR-1La) was “both versions of the PR-1La proteins responded to CA by causing a shift”.

For `COc1cc(/C=C/C(=O)O)ccc1O` [ferulic acid], the intrinsic tryptophan fluorescence entry at UmPR-1La (PR-1La) (5 µM or varied ligand, caveolin-binding motif site) is on record as “the intrinsic fluorescence intensity of PR-1La decreased in an FA-concentration-dependent manner”.
